What was measured:
[1] = tested on: TNBS-induced colitis; assay: Intestinal permeability, Texas Red labeled LPS, TNBS-colitis model; format: in vivo; conditions: TNBS-colitis mice; 60 mg/kg i.p.; labeled LPS gavage after 20 hours, serum four hours later; compared to vehicle control
Source text: The effectiveness of compounds and methods of the present invention on intestinal barrier protection and treatment of inflammatory bowel disease (IBD) in TNBS (2,4,6-trinitrobenzene sulfonic acid)-induced colitis, an established animal model of inflammatory bowel disease, was examined. TNBS-induced colitis was induced in mice using a modification of techniques previously described. (See Morris et al (1989) Gastroenterology 96:795-803; Boirivant et al (1998) J Exp Med 188:1929-1939; Karhausen et al (2004) J Clin Invest 114:1098-1106.) Mice were shaved on the abdomen (causing total depletion of hair and microlesions) and were then sensitized to subsequent treatment by epicutaneous application of 1% TNBS (Sigma-Aldrich) in 100% ethanol on day minus 7. Seven days later, on day 0, animals were sedated with a 2.5% Tribromoethanol solution in phosphate-buffered saline (14 μl/g body weight), followed by intrarectal administration of a 2.5% TNBS solution in 50% ethanol (5 μl/g body weight). Administration of the 2.5% TNBS solution was carried out using an epidural catheter ([…] Plus Epidural Catheter, Arrow International), which was inserted approximately 6 cm ab ano followed by release of the TNBS solution. […] Four hours later, changes in intestinal permeability were determined by measurement of serum Texas Red labeled LPS levels.

[2] = tested on: TNBS-induced colitis; assay: Histological analysis of colon sections in TNBS-colitis model; format: in vivo; conditions: TNBS-colitis mice; 40 mg/kg i.p. on day minus 1, day 0, day 1; day three; compared to vehicle-control treated TNBS-colitis animals
Source text: The effectiveness of compounds and methods of the present invention on intestinal barrier protection and treatment of inflammatory bowel disease (IBD) in TNBS (2,4,6-trinitrobenzene sulfonic acid)-induced colitis, an established animal model of inflammatory bowel disease, was examined. TNBS-induced colitis was induced in mice using a modification of techniques previously described. (See Morris et al (1989) Gastroenterology 96:795-803; Boirivant et al (1998) J Exp Med 188:1929-1939; Karhausen et al (2004) J Clin Invest 114:1098-1106.) Mice were shaved on the abdomen (causing total depletion of hair and microlesions) and were then sensitized to subsequent treatment by epicutaneous application of 1% TNBS (Sigma-Aldrich) in 100% ethanol on day minus 7. Seven days later, on day 0, animals were sedated with a 2.5% Tribromoethanol solution in phosphate-buffered saline (14 μl/g body weight), followed by intrarectal administration of a 2.5% TNBS solution in 50% ethanol (5 μl/g body weight). Administration of the 2.5% TNBS solution was carried out using an epidural catheter ([…] Plus Epidural Catheter, Arrow International), which was inserted approximately 6 cm ab ano followed by release of the TNBS solution. To ensure the continuance of the TNBS solution in the colon, mice were suspended in a vertical position for at least 5 minutes following administration. Vehicle control animals received a corresponding volume of 50% ethanol solution alone. Unless otherwise indicated, compounds of the invention were administered to animals intraperitoneally (i.p.) as a solution. Animals were dosed with compound (40 mg/kg/day or 20 mg/kg/day) on day minus 1, day 0, and day 1, or exclusively on day 0 and day 1, by i.p. injection. On day 0, TNBS treatment was performed on animals 4 hours after injection of compound. The effect of methods and compounds of the present invention on structural changes of the colon associated with inflammatory bowel disease was studied using an established animal model of inflammatory bowel disease (described above in Example 1). […]

SMILES: O=C(O)CNC(=O)c1ncc2cc(Sc3ccccc3)ccc2c1O [Compound A, [(4-Hydroxy-7-phenylsulfanyl-isoquinoline-3-carbonyl)-amino]-acetic acid]
- serum Texas Red labeled LPS levels (intestinal permeability) [1]: lower levels of serum Texas Red labeled LPS
- inflammatory infiltrate in colon sections [2]: reduction in inflammatory infiltrate
- tissue architecture in colon sections [2]: overall general preservation of tissue architecture
- villous blunting in colon sections [2]: reduction in villous blunting
